# Test results as given in publication PMC9851200, “Multiparameter phenotypic screening for endogenous TFEB and TFE3 translocation identifies novel chemical series modulating lysosome function” (Autophagy, 2022).
# Where two headings read alike, the source gives them in different places.
# Assays:
# SH-SY5Y cells [1] = test: Nuclear count from microscopy images (cellular growth and toxicity); also: reference of the scale not given here
# SH-SY5Y cells [2] = test: AK (adenylate kinase) release ToxiLight cytotoxicity assay; also: reference of the scale not given here
# endogenous TFEB = test: TFEB nuclear translocation, immunocytochemistry high-content imaging; assay type: cell-based
# endogenous TFE3 = test: TFE3 nuclear translocation, immunocytochemistry high-content imaging; assay type: cell-based
# SH-SY5Y cells [3] = test system: SH-SY5Y cells; also: reference of the scale not given here
# [4] = PKIS2 primary screening, DQ Red BSA intensity
# [5] = PKIS2 primary screening, DQ Red BSA spot count
Structure (SMILES),Nuclear Count (SH-SY5Y cells [1]; PKIS2 primary screening),AK (SH-SY5Y cells [2]; PKIS2 primary screening),TFEB % (endogenous TFEB; PKIS2 primary screening) [%],TFE3 % (endogenous TFE3; PKIS2 primary screening) [%],DQ Intensity (SH-SY5Y cells [3]; [4]),DQ Spot (SH-SY5Y cells [3]; [5]),DQ Intensity (SH-SY5Y cells [3]; PKIS2 primary screening),DQ Spot (SH-SY5Y cells [3]; PKIS2 primary screening),Nuclear Count (SH-SY5Y cells [1]; PKIS2 primary screen),AK (SH-SY5Y cells [2]; PKIS2 primary screen),TFEB % (endogenous TFEB; PKIS2 primary screen) [%],TFE3 % (endogenous TFE3; PKIS2 primary screen) [%],"DQ Intensity (SH-SY5Y cells [3]; PKIS2 primary screen, DQ Red BSA intensity)","DQ Spot (SH-SY5Y cells [3]; PKIS2 primary screen, DQ Red BSA spot count)"
COC(=O)Nc1nc2ccc(Oc3ccc(NC(=O)Nc4cccc(SC)c4)cc3)cc2[nH]1 [GW697999],71.32,75.30,5.11,19.88,145.78,122.82,–,–,–,–,–,–,–,–
COC(=O)Nc1nc2ccc(Oc3ccc(NC(=O)Nc4cc(F)ccc4F)cc3)cc2[nH]1 [GW701424],68.78,149.19,4.66,22.54,130.75,124.31,–,–,–,–,–,–,–,–
CN1CCN(CCNc2nc3ccc(Oc4ccc(NC(=O)Nc5cc(C(F)(F)F)ccc5F)cc4)cc3[nH]2)CC1 [GW768504],72.38,155.92,4.72,12.94,103.13,113.95,–,–,–,–,–,–,–,–
COc1ccc(C)c(Nc2ccnc(Nc3ccc(-c4cnc[nH]4)cc3)n2)c1 [GW784041],105.20,81.91,16.17,11.03,109.83,101.33,–,–,–,–,–,–,–,–
Cc1c2ccc(N(C)c3ccnc(Nc4cccc(S(N)(=O)=O)c4)n3)cc2nn1Cc1ccccc1 [GW787226],121.46,80.53,8.93,15.06,91.24,90.69,–,–,–,–,–,–,–,–
CN(c1ccc(NC(=O)Nc2cc(C(F)(F)F)ccc2F)cc1)c1ccnc(Nc2ccc(S(N)(=O)=O)cc2)n1 [GW809893],46.13,111.00,22.40,18.55,76.59,83.26,–,–,–,–,–,–,–,–
CN(c1ccc2c(c1)nc(NCc1ccccc1)n2C)c1ccnc(Nc2ccc(CS(C)(=O)=O)cc2)n1 [GW811603],118.98,192.03,7.98,9.93,108.65,109.65,–,–,–,–,–,–,–,–
CN(c1ccc2c(c1)nc(NCc1ccc(F)cc1)n2C)c1ccnc(Nc2ccc(CS(C)(=O)=O)cc2)n1 [GW813244],104.49,87.46,4.30,13.77,93.66,106.18,–,–,–,–,–,–,–,–
CN1CCN(Cc2ccc(NC(=O)Nc3ccc(N(C)c4ccnc(Nc5ccc(CS(C)(=O)=O)cc5)n4)cc3)cc2)CC1 [GW827654],120.62,74.74,6.08,10.58,92.35,93.05,–,–,–,–,–,–,–,–
CN(c1ccc(NC(=O)Nc2cccc(Cl)c2)cc1)c1ccnc(N)n1 [GW830707],115.77,94.92,11.00,9.81,86.00,87.81,–,–,–,–,–,–,–,–
CN(c1ccc(NC(=O)N2CCN(CCCN3CCOCC3)CC2)cc1)c1ccnc(Nc2ccc(CS(C)(=O)=O)cc2)n1 [GW830899],123.35,75.66,7.11,11.27,91.97,98.21,–,–,–,–,–,–,–,–
O=C(Nc1n[nH]c2cc(-c3ccccc3F)ccc12)C1CC1 [SB-733371],133.33,88.17,4.96,7.51,129.64,114.49,–,–,–,–,–,–,–,–
O=C(Nc1n[nH]c2cc(-c3cccc(F)c3F)ccc12)C1CC1 [SB-733894],112.33,80.72,5.04,15.11,66.38,85.29,–,–,–,–,–,–,–,–
O=C(Nc1n[nH]c2cc(-c3ccco3)ccc12)C1CC1 [SB-737447],114.46,119.40,10.40,9.47,79.02,97.06,–,–,–,–,–,–,–,–
O=C(Nc1n[nH]c2nc(-c3ccco3)c(Br)cc12)c1ccc(CN2CCCC2)cc1 [SB-742352],100.71,95.96,7.90,19.33,92.66,91.08,–,–,–,–,–,–,–,–
Cl.NS(=O)(=O)c1cccc(Nc2cc(-c3ccc(F)cc3)n[nH]2)c1 [UNC10112764A],80.49,125.30,1.30,14.81,118.54,103.52,–,–,–,–,–,–,–,–
CCn1c(-c2nonc2N)nc2ccccc21 [UNC10112830A],114.37,85.29,9.19,10.17,–,–,143.39,111.62,–,–,–,–,–,–

Structure (SMILES),Nuclear Count (SH-SY5Y cells [1]; PKIS2 primary screening),AK (SH-SY5Y cells [2]; PKIS2 primary screening),TFEB % (endogenous TFEB; PKIS2 primary screening) [%],TFE3 % (endogenous TFE3; PKIS2 primary screening) [%],DQ Intensity (SH-SY5Y cells [3]; [4]),DQ Spot (SH-SY5Y cells [3]; [5]),DQ Intensity (SH-SY5Y cells [3]; PKIS2 primary screening),DQ Spot (SH-SY5Y cells [3]; PKIS2 primary screening),Nuclear Count (SH-SY5Y cells [1]; PKIS2 primary screen),AK (SH-SY5Y cells [2]; PKIS2 primary screen),TFEB % (endogenous TFEB; PKIS2 primary screen) [%],TFE3 % (endogenous TFE3; PKIS2 primary screen) [%],"DQ Intensity (SH-SY5Y cells [3]; PKIS2 primary screen, DQ Red BSA intensity)","DQ Spot (SH-SY5Y cells [3]; PKIS2 primary screen, DQ Red BSA spot count)"
Cc1ccc(NC(=O)c2ccc(Cl)cc2)cc1-c1ccc(C(=O)Nc2ccncc2)cc1 [UNC10224985A],119.79,72.98,7.14,13.44,–,–,77.83,81.57,–,–,–,–,–,–
O=C(NCC1CC1)c1ccc(-c2cc(C(=O)NC3CC3)ccc2F)cc1 [UNC10224986A],97.72,72.27,5.16,10.56,–,–,92.71,109.74,–,–,–,–,–,–
COc1cccc(CC(=O)N2CCc3cc(-c4cn(C)c5ncnc(N)c45)ccc32)c1 [UNC10224987A],115.64,97.56,11.97,10.50,–,–,104.40,98.28,–,–,–,–,–,–
NS(=O)(=O)CCc1cccc(Nc2nccc(-c3c(-c4cccc(NC(=O)c5c(F)cccc5F)c4)nn4ccccc34)n2)c1 [UNC10224988A],124.64,106.43,3.80,7.44,–,–,109.41,101.39,–,–,–,–,–,–
Cl.O=S(=O)(c1cccc(F)c1)c1ccc(Nc2ncnc3cc(Br)sc23)cc1Cl [UNC10224990A],81.79,136.08,10.77,13.25,81.12,105.16,–,–,–,–,–,–,–,–
CC(C)c1nc(-c2cccc(NS(=O)(=O)c3c(F)cccc3F)c2F)c(-c2ccnc(Nc3ccc(N4CCOCC4)nc3)n2)s1 [UNC10224991A],54.49,96.03,5.34,13.92,–,–,137.04,135.69,–,–,–,–,–,–
Cc1ccc(NC(=O)Nc2ccccc2)cc1-c1ccc(C(=O)Nc2ccncc2)cc1 [UNC10224992A],89.66,119.72,8.91,19.70,–,–,74.41,94.75,–,–,–,–,–,–
Nc1ncnc2occ(-c3ccc4c(c3)CCN4C(=O)Cc3cc(F)ccc3F)c12 [UNC10225000A],124.09,111.48,2.84,4.51,134.29,108.59,–,–,–,–,–,–,–,–
Cc1c(Cn2c(C)nn3c(=O)cc(N4CCOC(C)C4)nc23)cccc1C(F)(F)F (stereo not drawn) [UNC10225005A],–,–,–,–,–,–,–,–,125.80,90.28,4.71,10.85,85.13,83.90
Cc1ccc(NC(=O)c2ccnc(N3CCN(C)CC3)c2)cc1-c1ccc(C(=O)NCC2CC2)cc1 [UNC10225009A],101.80,154.31,4.01,12.99,–,–,132.78,99.28,–,–,–,–,–,–
NC(=O)c1cc(-c2ccccc2)cc2c(C3CCNCC3)c[nH]c12 [UNC10225015A],93.78,102.13,3.89,15.20,–,–,84.06,101.36,–,–,–,–,–,–
Cc1ccc(NC(=O)Nc2cccc(Cl)c2)cc1-c1ccc(C(=O)Nc2ccncc2)cc1 [UNC10225019A],106.82,95.29,7.29,11.19,–,–,128.25,121.60,–,–,–,–,–,–
c1ccc(-c2cnc3nccnn23)cc1 [UNC10225020A],110.84,125.59,8.54,11.36,–,–,109.95,119.05,–,–,–,–,–,–
Cc1ccc(NC(=O)c2cccc(N3CCCCC3)c2)cc1-c1ccc(C(=O)NCC2CC2)cc1 [UNC10225021A],118.95,68.90,6.38,7.57,–,–,102.66,94.61,–,–,–,–,–,–
NCCNS(=O)(=O)c1ccc(-c2ccnc3[nH]ccc23)cc1 [UNC10225023A],129.56,82.12,3.25,9.07,104.54,94.72,–,–,–,–,–,–,–,–
NCCNS(=O)(=O)c1ccc(-c2ccnc3[nH]ccc23)cc1 [UNC10225023B],135.88,72.23,3.92,14.03,110.40,102.49,–,–,–,–,–,–,–,–
O=c1cc(N2CCOCC2)nc2n(Cc3cccc(C(F)(F)F)c3)ccn12 [UNC10225024A],98.56,84.29,3.55,12.11,–,–,73.22,100.00,–,–,–,–,–,–
